Test results reported in patent publication US20230190743A1, “TREATMENT WITH ILEAL BILE ACID TRANSPORTER (IBAT) INHIBITORS FOR INCREASED EVENT-FREE SURVIVAL (EFS)” (Mirum Pharmaceuticals, Inc., priority 2021, published 2023).
Where “and” joins values, the source holds several entries; their conditions need not be identical. Identical values can stand only once. Entries after “also recorded” stand apart in the source; their conditions may differ.

Experiments:
patients with ALGS = experiment: Phase 2 ICONIC trial, 48-week HRQoL analysis by ItchRO treatment response; type: in vivo, human; parameters: key to Beta, ItchRO treatment response at week 48 Yes vs No, PedsQL Generic Core Scale / Beta, ItchRO treatment response at week 48 Yes vs No, Family Impact Scale / Beta, ItchRO treatment response at week 48 Yes vs No, Multidimensional Fatigue Scale: regression beta in HRQoL score points (0-100 scale), responders vs not
Procedure: A retrospective analysis was performed of 48-week data from the Phase 2 ICONIC trial, a study with a 4-week double-blind, placebo-controlled, randomized drug withdrawal period in patients with ALGS. Patients had moderate to severe pruritus as measured using a validated caregiver-reported Itch Reported Outcome (ItchRO) severity assessment tool (0=none to 4=very severe). Clinically meaningful pruritus response was defined as a ≥1 point reduction in the ItchRO, from baseline to week 48. HRQoL was assessed using the Pediatric Quality of Life Inventory Generic Core (PedsQL; 0-100 scale, 100=best quality of life), Family Impact (FI), and Multidimensional Fatigue (MF) scale scores, and were collected via caregiver. The minimal clinically important difference (MCID) for the HRQoL assessments is 5 points. A subset of individual items from the HRQoL scales were also independently selected for assessment with treatment response. HRQoL scores and selected items were assessed at baseline and week 48 and stratified by treatment response status. P-values were calculated using t-tests or ANOVAs. Multivariate linear regression models were used to assess the relationship between the mean change from baseline in HRQoL score (dependent variable) and an indicator for treatment response (independent variable), adjusting for baseline HRQoL. Adjustment for additional baseline covariates was also explored for the following variables: age, gender, bilirubin, rifampicin use, height z-score, weight z-score, ItchRO, and serum bile acid.

[1] = test system: children with FIC1 or BSEP deficiencies (PFIC); experiment: INDIGO open-label Phase 2 long-term efficacy and safety study; type: in vivo, human; conditions: for tolerability: up to 5 years of treatment
Procedure: INDIGO investigated the effect of maralixibat on sBA levels and cholestatic pruritus, alongside other biochemical markers of cholestasis and liver disease in these patients.
The study was conducted at 12 hospitals in France, Poland, the United Kingdom, and the United States. Screening evaluations were performed in the 6 weeks prior to the start of the study. In patients without documented ATP8B1 or ABCB11 mutations, genetic testing was performed.
The primary efficacy endpoint was the change in mean fasting sBA levels from Baseline to Week 13 in the overall intent-to-treat (ITT) study population. The key secondary efficacy endpoint was the mean change in observer-rated pruritus (Itch Reported Outcome Observer [ItchRO(Obs)]) score from Baseline to Week 13 in the overall ITT study population. Other secondary efficacy endpoints included the mean changes from Baseline to Week 13 in total cholesterol, low- and high-density lipoprotein cholesterol (LDL-C and HDL-C, respectively), and serum triglyceride levels in the overall ITT study population. Additional efficacy and safety analyses included the change from Baseline to Week 72 and Week 240 in sBA levels, patient height and weight, bile acid synthesis (as determined by the ratio between sBA levels and 7α-hydroxy-4-cholesten-3-one [7α-C4] levels), quality of life as measured by the Pediatric Quality of Life Inventory™ (PedsQL™), mean changes in ALT, aspartate aminotransferase (AST), and bilirubin (total and direct), lipid profiles, and FSV levels. The ItchRO assessment was not performed at Week 72, so data from Week 48 were used instead.
Efficacy and safety analyses were performed for the overall ITT study population as well as the two PFIC subtypes (FIC1 deficiency and BSEP deficiency) separately. Patients with BSEP deficiency were analyzed overall and according to their mutation type (t-BSEP and nt-BSEP). Long-term changes in pruritus scores, patient height, blood lipids, liver parameters, and transplant-free survival were assessed according to a responder analysis.
Quantitative analysis of the 15 major sBAs and serum 7α-C4 was performed at a single site (Cincinnati) by stable isotope dilution electrospray ionization liquid chromatography-mass spectrometry (LCMS/MS) using a fully validated proprietary assay that complies with College of American Pathologists/Clinical Laboratory Improvement Amendments certification. The study protocol defined a composite response to maralixibat as achieving a ≥1.0-point reduction in ItchRO(Obs) score and a ≥70% reduction or normalization of sBA levels from Baseline. […] Pruritus was measured using the ItchRO tool, which was specifically developed and validated to evaluate pruritus in children with cholestatic liver diseases, based on a five-point scale where 0=‘none’ and 4=‘very severe’. […] The ItchRO measure was completed twice daily via an eDiary. Parents/caregivers completed the ItchRO(Obs) assessment for all patients. Additionally, children ≥9 years of age completed the ItchRO(Pt) assessment. Levels of ALT, AST, bilirubin (total and direct), lipids, and FSV were assessed using standard clinical laboratory techniques. Quality of life was assessed using the PedsQL™ questionnaire. […] The occurrence of treatment-emergent adverse events (TEAEs) and serious adverse events (SAEs) was assessed throughout the study.

## CCCCC1(CCCC)CS(=O)(=O)c2ccc(N(C)C)cc2[C@@H](c2ccc(OCc3ccc(C[N+]45CCN(CC4)CC5)cc3)cc2)[C@H]1O [maralixibat]
Patients with ALGS; ItchRO Non-Responders
  HRQoL at Week 48 (mean ± SD), Family Impact Scale: 54.7 ± 20.0
  HRQoL at Week 48 (mean ± SD), Multidimensional Fatigue Scale: 64.2 ± 15.1
  HRQoL at Week 48 (mean ± SD), PedsQL Generic Core Scale: 62.4 ± 14.5
  HRQoL change from baseline to Week 48 (mean ± SD), Family Impact Scale: 3.9 ± 7.8
  HRQoL change from baseline to Week 48 (mean ± SD), Multidimensional Fatigue Scale: −3.1 ± 19.8
  HRQoL change from baseline to Week 48 (mean ± SD), PedsQL Generic Core Scale: 1.2 ± 11.1
Patients with ALGS; ItchRO Responders
  HRQoL at Week 48 (mean ± SD), Family Impact Scale: 73.9 ± 19.6
  HRQoL at Week 48 (mean ± SD), Multidimensional Fatigue Scale: 76.2 ± 15.1
  HRQoL at Week 48 (mean ± SD), PedsQL Generic Core Scale: 70.4 ± 15.7
  HRQoL change from baseline to Week 48 (mean ± SD), Family Impact Scale: 17.8 ± 23.4
  HRQoL change from baseline to Week 48 (mean ± SD), Multidimensional Fatigue Scale: 25.8 ±23.0
  HRQoL change from baseline to Week 48 (mean ± SD), PedsQL Generic Core Scale: 11.6 ± 20.3
Patients with ALGS; multivariate regression, adjusted for baseline HRQoL, N = 21, CI −2.49, 30.32
  Beta, ItchRO treatment response at week 48 Yes vs No, Multidimensional Fatigue Scale: 13.92
Patients with ALGS; multivariate regression, adjusted for baseline HRQoL, N = 26, CI 1.01, 32.68
  Beta, ItchRO treatment response at week 48 Yes vs No, Family Impact Scale: 16.85
Patients with ALGS; multivariate regression, adjusted for baseline HRQoL, N = 27, CI −3.86, 21.38
  Beta, ItchRO treatment response at week 48 Yes vs No, PedsQL Generic Core Scale: 8.76
Patients with ALGS; non-responders, result in words
  HRQoL change from baseline to week 48 across all scales: No clinically meaningful change
Patients with ALGS; over the 48 weeks, controlling for baseline FI score
  average increase of Family Impact score, responders compared with non-responders: 17 points and 16.9 points
Patients with ALGS; over the 48 weeks, p=0.11
  average increase of Multidimensional Fatigue total score, responders compared with non-responders: 13.9 points
Patients with ALGS; over the 48 weeks, p=0.19
  average increase of PedsQL Generic Core Total Scale Score, responders compared with non-responders: 8.8 points
Patients with ALGS; responders vs non-responders
  Difference in change from baseline to week 48, HRQoL item Difficulty steeping through the night: 52.9
  Difference in change from baseline to week 48, HRQoL item Feeling tired: 40.1
  Difference in change from baseline to week 48, HRQoL item Feeling tired upon waking: 72.4
  Difference in change from baseline to week 48, HRQoL item Steeping a lot: 55.2
  Difference in change from baseline to week 48, HRQoL item Taking a lot of naps: 40.4
  Difference in change from baseline to week 48, HRQoL item Trouble sleeping: 45.4
Patients with ALGS; result in words
  pruritus at week 48 of the ICONIC study: significant improvements in pruritus
Patients with ALGS; week 48, 27 patients
  patients who achieved ItchRO treatment response (≥1 point reduction): 74%
[1]; 266 μg/kg once daily
  sBA responders who achieved response during once-daily dosing: six and Six
[1]; 266 μg/kg twice daily, after Week 97
  sBA responders who achieved response after switching to twice-daily dosing: one
[1]; 18 patients
  TEAE cough, patients: 55%
[1]; 19 patients
  TEAE diarrhea, patients: 58%
[1]; 20 patients
  TEAE pyrexia, patients: 61%
[1]; 33 patients
  TEAEs mild or moderate in severity: 58%
[1]; 33 patients, result in words
  patients who experienced ≥1 TEAE: All patients
[1]; P<0.001 vs sBA responders, result in words
  sBA non-responders with transplant-free survival after >5 years: none
[1]; Week 13, ITT population, 95% CI −1.04, −0.53, P<0.001
  mean reduction from Baseline in ItchRO(Obs) score: −0.8
[1]; Week 13, ITT population, 95% CI −1.55, −0.47, P=0.002
  mean reduction from Baseline in ItchRO(Pt) score: −1.0
[1]; during the study
  patients with serious TEAEs: 15 patients
[1]; eight patients with FIC1 deficiency, result in words
  patients with FIC1 deficiency who met the sBA responder criteria: No patient
[1]; in vivo
  SAEs abdominal pain, diarrhea, and gastroenteritis: two
  patients who discontinued due to adverse events or liver transplantation following disease progression: 12 patients
[1]; listed for refractory pruritus at the beginning of the study
  sBA responders listed for liver transplantation who were removed from the transplant waiting list: Two
[1]; n=19 nt-BSEP
  patients with nt-BSEP who achieved sBA response: 37%
[1]; of 19 patients with nt-BSEP
  patients with nt-BSEP with rapid and sustained reductions in sBA levels: 6 patients
[1]; of 19 with nt-BSEP, during the study
  patients with nt-BSEP who achieved sBA response (reduction >75% from baseline or <102.0 μmol/L): seven
[1]; one with FIC1 deficiency, seven with BSEP deficiency
  patients who discontinued maralixibat due to an adverse event: Eight
[1]; overall ITT population (33 patients), 95% CI −74.830, 41.070, P=0.884
  change in sBA levels from Baseline to Week 13: -16.9 µmol/L
[1]; patients with FIC1 deficiency, long-term, result in words
  mean levels of sBA, ItchRO(Obs) scores, and PedsQL scores versus Baseline: did not change significantly
[1]; patients with nt-BSEP, Week 240, 95% CI 4.07, 48.50, P=0.027
  change in mean level of serum 7α-C4: +26.29 ng/mL
[1]; result in words
  deaths during the study: No deaths
  effect on levels of FSV or liver transaminases: did not have any significant detrimental effects
  tolerability: generally safe and well tolerated
[1]; sBA non-responders
  sBA non-responders with clinically meaningful (>1.0 points) reduction in ItchRO(Obs): Three
[1]; sBA non-responders, Week 72, 95% CI −0.606, −0.012
  change in weight z-score (decrease): −0.30
[1]; sBA responders
  time to decrease of sBA levels upon treatment initiation: 2-4 Weeks
[1]; sBA responders, Week 72, 95% CI 0.369, 0.976, P=0.0016
  change from Baseline in mean height z-score: 0.67
[1]; sBA responders, Week 72, 95% CI −0.001, 0.603, P=0.051
  change from Baseline in mean weight z-score: 0.30
[1]; sBA responders, if elevated at Baseline, result in words
  serum ALT, AST, and bilirubin levels: improvements and/or normalization
[1]; sBA responders, 95% CI 6.7, 40.6, P=0.014
  change in mean PedsQL score from Baseline to Week 240: 24 points
[1]; sBA responders, result in words
  7α-C4/sBA ratio compared with Baseline: generally increased; also recorded: increased rapidly
[1]; six patients with t-BSEP, result in words
  patients with t-BSEP who met the sBA responder criteria: No patients and No patient and none
[1]; result in words, listed as Maralixibat
  tolerability: generally well-tolerated; also recorded: generally well tolerated
